Read-outs that look alike come from different tables or passages of the source.
Columns and labels:
Human CB2 Receptor = target: T1, Human CB2 Receptor (Homo sapiens, UniProt P34972); assay: [35S]GTPγS-binding assay, hCB2; format: biochemical; details: for selectivity toward CB2: GTPγS agonism, CB2 versus CB1; for EC50 / Emax / agonistic activity toward cannabinoid receptors (in words): GTPγS; for EC50 / Emax: Human CB2 Receptor, NB = no binding; for Emax: upper plateau of curve; for agonistic activity toward cannabinoid receptors (in words): hCB1 and hCB2
T1 construct: host or cells: Sf9 or HEK-293 cells (membranes)
T1 sequence (P34972 whole entry): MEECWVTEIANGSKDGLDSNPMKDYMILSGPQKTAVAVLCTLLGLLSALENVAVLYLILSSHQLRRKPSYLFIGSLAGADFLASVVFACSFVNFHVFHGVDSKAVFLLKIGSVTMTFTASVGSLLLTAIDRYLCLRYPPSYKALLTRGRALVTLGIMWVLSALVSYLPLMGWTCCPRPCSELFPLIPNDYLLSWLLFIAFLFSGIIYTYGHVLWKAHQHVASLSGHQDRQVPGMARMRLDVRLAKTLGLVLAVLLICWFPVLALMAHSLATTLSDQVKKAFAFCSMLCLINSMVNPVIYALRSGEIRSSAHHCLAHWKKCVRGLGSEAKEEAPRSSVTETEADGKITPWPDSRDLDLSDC
Description: (§1) Functional activity of compounds of the invention toward the cannabinoid receptors was determined by stimulation of [^35S]-GTPγS binding using membranes from HEK-293 cells expressing the hCB1 receptor and membranes expressing the hCB2 receptor derived from either Sf9 (PerkinElmer) or from HEK-293 cells. Activities were compared to that of the known cannabinoid full agonist CP55940 (Alexis). The purpose of this experiment is to determine the potency of the compounds of the invention as agonists or antagonists toward each of the receptor tested.
(§2) [^35S]-GTPγS binding reactions were performed at 30° C. in 96-well plates containing 5-10 μg membrane protein suspended in 0.1 ml binding buffer [20 mM HEPES-NaOH, pH 7.4, 5 mM MgCl2, 100 mM NaCl, 0.2% (w/v) bovine serum albumin] supplemented with 50 μM GDP and 0.06 nM-10 μM of the compound being tested. Binding was initiated by the addition of [^35S]GTPγS (0.3 nM final concentration). Incubations were performed for 90 minutes and were terminated by filtration on GF/C filter plates (PerkinEimer). Filters were washed ten times with ice-cold wash buffer (20 mM HEPES-NaOH, pH 7.4, 10 mM sodium pyrophosphate). Non-specific binding was measured in the presence of 15 μM GTPγS.
(§3) Assays were performed in duplicates. Data was analyzed by plotting on the X axis the log concentration against percent of specific [^35S]GTPγS binding out of basal [^35S]GTPγS binding on the Y axis, non-linear regression is then performed using GraphPad Prism, version 3.0 (GraphPad, San Diego, Calif.) to calculate the EC50 and Emax of the compound. The EC50 value represents the concentration at which there is 50% [^35S]GTPγS binding and the Emax value the upper plateau of the curve.

[1] = tested on: visceral pain writhing responses; assay: Visceral pain, acetic acid induced writhing responses; format: in vivo, Male ICR mice; details: Mus musculus, iv, single dose 2 mg/kg i.v., compared to untreated group; read-out: Percent Inhibition of Visceral Pain Writhing Responses
Description: Male ICR mice (average body weight 25 g, Harlan, Israel) were pretreated by i.v. injection at volume dose of 5 ml/kg of vehicle, control and test compounds at various doses. Other routes of administration were tested for selected compounds including i.m. or s.c. injections at volume dose of 2.5 ml/kg and p.o. gavage at volume dose of 5 ml/kg. Compounds were dissolved in CREMOPHOR®:Ethanol and diluted 1:20 in saline prior to injection or gavage. Compounds administered i.v. were injected fifteen minutes before pain induction, whereas compounds administered i.m., s.c. or p.o. were supplied thirty minutes before pain induction, unless otherwise indicated. Each treatment group, except for controls comprising at least 30 animals, was composed of at least 6 animals. Fifteen or thirty minutes after drug administration, depending on the route of administration, the mice were injected i.p. with 10 ml/kg of 0.6% acetic acid and the number of visceral pain related behaviors (writhing movements globally defined as WR, i.e. stretching, contractions of the abdomen accompanied by an elongation of the body and extension of the hind limbs) was counted over a period of 5 minutes, starting 5 minutes after the acetic acid administration. These visceral pain related behaviors were globally defined as writhing responses (WR). The results are expressed as mean number of writhing responses ±SEM. Data were analyzed using analysis of variance (ANOVA) followed by post-hoc Fisher test.

Human CB1 Receptor = target: T2, Human CB1 Receptor (Homo sapiens, UniProt P21554); assay: [35S]GTPγS-binding assay, hCB1; format: biochemical; details: NB = no binding; for Emax: upper plateau of curve
T2 construct: expressed in transfected cells; host or cells: HEK-293 cells (membranes)
T2 sequence (P21554 whole entry): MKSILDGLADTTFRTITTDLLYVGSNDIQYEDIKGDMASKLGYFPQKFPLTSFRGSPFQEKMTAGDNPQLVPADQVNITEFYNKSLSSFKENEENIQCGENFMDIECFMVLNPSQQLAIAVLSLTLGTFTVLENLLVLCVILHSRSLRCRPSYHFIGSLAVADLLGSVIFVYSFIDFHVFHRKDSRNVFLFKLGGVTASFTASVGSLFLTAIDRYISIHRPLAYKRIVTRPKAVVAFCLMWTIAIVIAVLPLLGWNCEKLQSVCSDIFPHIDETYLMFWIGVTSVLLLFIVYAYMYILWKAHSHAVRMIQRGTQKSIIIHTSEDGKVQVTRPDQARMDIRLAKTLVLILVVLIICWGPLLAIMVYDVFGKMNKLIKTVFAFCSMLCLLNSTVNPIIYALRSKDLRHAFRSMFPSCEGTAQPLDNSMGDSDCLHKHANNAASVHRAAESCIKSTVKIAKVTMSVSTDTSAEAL
Description: as §1, §2, §3

[2] = tested on: carrageenan induced inflammatory pain and paw edema; assay: Inflammatory pain and paw edema induced by carrageenan; format: in vivo, Male Sprague Dawley rats; details: Rattus norvegicus, ip, 3 hours; for inhibition in vivo at 3 mg/kg: 3 mg/kg i.p. (one asterisk)
Description: Male Sprague Dawley rats (average body weight 200 g, Harlan, Israel) were transiently sedated by placement on dry ice for the duration of the injections. Rats were injected subcutaneously, in the subplantar region of one (right) paw with 0.1 ml of 2% w/v λ Carrageenan in sterile saline. […] Test compounds were, unless otherwise stated, administered i.p. at initial single dose of 3, 10 or 20 mg/kg, and volume dose of 5 ml/kg, immediately after the carrageenan injection. Selected compounds were also tested p.o. following oral gavage. Vehicle and celecoxib treated animals were used as controls. Each treatment group comprised at least seven animals.
Before induction of inflammatory pain and three hours after injection, the animals reactions to pain stimuli were tested in two systems. The first stimulus was thermal and assessed by the Plantar Test according to Hargreaves, using Ugo Basile Model 7370. The scale was set to an intensity of 50 arbitrary units. The latency time till the animal lift a paw as a reaction to the thermal stimulus was recorded for both the inflamed and non-inflamed hind paws. The second stimulus was mechanical (tactile) and assessed using a Dynamic Plantar Sesthesiomether (Ugo Basile Model 73400-002). […] Finally, the impact on paw edema was assessed. Paw thickness was measured using a dial thickness gauge (Spring-dial, constant low pressure gauge, Mitutoyo, TG/L-1, 0.01 mm) and paw volume was measured using a plethysmometer (model #7150, Ugo Basile, Italy). At the end of the study, animals were euthanized.
The results are measured as the differences between the two hind paws at time 0 and 3 hours both as ALT, for the latency time in the thermal part of the study, and as ΔForce, for the mechanical part of the study. The paw volume is expressed as percent from vehicle treated animals. Results are expressed as mean±SEM for each treatment group and the differences among those groups are analyzed by analysis of variance (ANOVA) followed by post-hoc Tukey's test.
Results refer to i.p. treatment with 10 mg/kg. Results marked with one asterisk refer to a dose 3 mg/kg, whereas two asterisks refer to 20 mg/kg. Celecoxib is included as reference.

MCP-1 = assay: Gene expression in LPS activated RAW 264.7 macrophages, MCP-1; format: cell-based, mouse; details: RAW 264.7, 10 μM, LPS 1 μg/ml, RNA 3 hrs after activation, vs vehicle treated activated cells
Description: (§4) RAW 264.7 macrophages, a mouse cell line (ATCC # TIB 71), were grown in Dulbecco's modified Eagle's medium (DMEM) with 4 mM L-glutamine adjusted to contain 1.5 g/L sodium bicarbonate, 4.5 g/L glucose, and 10% heat inactivated fetal bovine serum. Cells were grown in tissue culture flasks and seeded at appropriate density into 6 wells tissue culture plates. Four million Raw cells in half a milliliter were stimulated with 1 μg/ml LPS E. coli 055:B5 (DIFCO Laboratories). The mouse macrophages were pre-treated for one hour with controls or 10 μM of test compounds, and later on activated with LPS. RNA samples were extracted from the cells 3 hrs after activation and gene expression levels were analyzed by real-time RT-PCR. In parallel, supernatants were collected and secretion of inflammatory mediators was analyzed using ELISA techniques according to the instructions of the kit manufacturer.
(§5) Total RNA is prepared using SV total RNA isolation system (Promega). The cells were homogenized in lysis buffer. The lysates were transferred to an RNA isolation column, treated with DNAse, washed and eluted according to kit instructions. RNA concentrations were determined using GeneQuant II (Pharmacia-Amersham). Complementary DNA (cDNA) was synthesized from total RNA using […] II reverse transcriptase (Life Technologies). 2 μg of total RNA were combined with an oligo (dT)15 primer, 0.5 mM dNTP mix, 8 units of reverse transcriptase and other reaction components up to a final volume of 20 μl, according to the kit instructions. The reaction mixture was incubated at 42° C. for 45 min and inactivated at 70° C. for 15 minutes. Quantitative real-time RT-PCR included 1 μl of the cDNA, 300 nM of the appropriate forward and reverse primers (according to the gene monitored) and 7.5 μl of the reaction mix containing buffer, nucleotides, Taq polymerase and SYBER green (SYBER Green master mix, Applied Biosystems), in a total reaction volume of 15 μl. Gene amplification was obtained using the GeneAmp 5700 sequence detection system (Applied Biosystems). Amplification included one stage of 10 minutes at 95° C. followed by 40 cycles of a 2-steps loop: 20 seconds at 95° C., and 1 minute at 60° C. During each annealing step, the amount of the amplified product was measured by the fluorescence of the double strand DNA binding dye, SYBER Green. The cycle of threshold (CT), representing the PCR cycle at which an increase in fluorescence above a baseline signal can be first detected, was determined for each product. A delay of one PCR cycle in the CT is translated into a two-fold decrease in starting template molecules and vice versa. The changes in the CT of the specific gene product were normalized to the changes in the CT of housekeeping cyclophilin or GAPDH as reference genes. Results were expressed as fold increase of gene expression in treated or untreated activated cells above the resting cells, after normalization to cyclophilin or GAPDH. Cells were also tested for viability to confirm that any effect on gene expression was indeed due to modulation of transcription of a specific target and not to cytoxicity.
(§6) Results were further expressed as percent inhibition of gene expression in compound treated activated cells over vehicle “treated” activated cells. Since the modulation of IL-10 and TNF-α gene expression by the compounds of the invention is relatively minor, it is not reported. […] Inhibition above 50% was considered significant.

iNOS = assay: Gene expression in LPS activated RAW 264.7 macrophages, iNOS; format: cell-based, mouse; details: RAW 264.7, 10 μM, LPS 1 μg/ml, RNA 3 hrs after activation, vs vehicle treated activated cells
Description: as §4, §5, §6

IL-1β = assay: Gene expression in LPS activated RAW 264.7 macrophages, IL-1β; format: cell-based, mouse; details: RAW 264.7, 10 μM, LPS 1 μg/ml, RNA 3 hrs after activation, vs vehicle treated activated cells
Description: as §4, §5, §6

SMILES	selectivity toward CB2 (Human CB2 Receptor)	EC50 (Human CB2 Receptor) [nM]	Emax (Human CB2 Receptor) [%]	agonistic activity toward cannabinoid receptors (in words) (Human CB2 Receptor)	inhibition in vivo at 2 mg/kg [1] [%]	EC50 (Human CB1 Receptor) [nM]	Emax (Human CB1 Receptor) [%]	inhibition in vivo at 3 mg/kg ([2]; mechanical stimulus, read-out: Percent Inhibition of Inflammatory Pain Responses, ΔForce) [%]	inhibition in vivo at 3 mg/kg ([2]; reduction in paw swelling, read-out: Percent Inhibition of Inflammatory Pain Responses, Edema) [%]	inhibition in vivo at 3 mg/kg ([2]; thermal stimulus, read-out: Percent Inhibition of Inflammatory Pain Responses, ΔLT) [%]	inhibition in vivo at 20 mg/kg ([2]; 20 mg/kg i.p. (two asterisks), reduction in paw swelling, read-out: Percent Inhibition of Inflammatory Pain Responses, Edema) [%]	Percent inhibition of gene expression, MCP-1 (MCP-1) [%]	Percent inhibition of gene expression, iNOS (iNOS)	Percent inhibition of gene expression, IL-1β (IL-1β)
CCCCCCC(C)(C)c1cc(O)c2c(c1)OC1C(O)CCCCC21 (single isomer, unassigned) [Compound C7S-29, 2-(,1-dimethylheptyl)-5,6,7,8,9,9a-hexahydro-4bH-10-oxa-benzo[α]azulen-4,9-diol]	non-selective agonist	54	60	agonists toward both receptors with some degree of selectivity toward the CB2 receptor	> 90	79	41							
CCCCCCC(C)(C)c1cc(O)c2c(c1)OC1CC(C)(C)CCC21 (stereo not drawn) [Compound C6S-17, 3-(1,1-dimethylheptyl)-7,7-dimethyl-5a,6,7,8,9,9a-hexahydro-dibenzofuran-1-ol]		4	43	agonists specific toward the CB2 receptor	38	2880	-25	37	44	60				
CCCCCCC(C)(C)c1cc(O)c2c(c1)OC1CCCCC21 (stereo not drawn) [Compound C6S-1, 3-(1,1-Dimethylheptyl)-5a,6,7,8,9,9a-hexahydro-dibenzofuran-1-ol]					39						48	66	NO (NO indicates that the compound tested did not significantly affect the transcription of the gene assessed and that its activity is comparable to vehicle, within ±20% from this control)	NO (NO indicates that the compound tested did not significantly affect the transcription of the gene assessed and that its activity is comparable to vehicle, within ±20% from this control)
CCCCCCC(C)(C)c1cc(OC(=O)C=CC(=O)O)c2c(c1)OC1CCCCCC21 (stereo not drawn) [Compound C7S-9, But-2-enedioic acid mono-[2-(1,1-dimethylheptyl)-5,6,7,8,9,9a-hexahydro-4bH-10-oxa-benzo[α]azulen-4-yl]ester]		712	52		26	> 10000								
CCCCCCC(C)(C)c1cc(O)c2c(c1)OC1C(I)CCCCC21 (stereo not drawn) [Compound C7S-26, 2-(1,1-Dimethylheptyl)-9-iodo-5,6,7,8,9,9a-hexahydro-4bH-10-oxa-benzo[α]azulen-4-ol]	about 285 fold	0.07	38	agonists toward both receptors with some degree of selectivity toward the CB2 receptor	26	20	155							
CCCCCCC(C)(C)c1cc(OC(=O)C=CC(=O)O)c2c(c1)OC1C(I)CCCCC21 (stereo not drawn) [Compound C7S-28, But-2-enedioic acid mono-[2-(1,1-dimethylheptyl)-9-iodo-5,6,7,8,9,9a-hexahydro-4bH-10-oxa-benzo[α]azulen-4-yl]ester]	about 10 fold	16	44	agonists toward both receptors with some degree of selectivity toward the CB2 receptor	56	217	118							

From patent publication US20090054376A1, “BENZOFURAN DERIVATIVES WITH THERAPEUTIC ACTIVITIES” (Pharmos Corporation, priority 2005, published 2009)
